Test results reported in PubChem BioAssay AID1918998 (Molecular Pharmacology Branch, DTP, NCI, 2023).

Tested on: 521955-158-R2-J5-PDC complex spheroid growth
Assay: Anticancer human tumor 521955-158-R2-J5-PDC patient-derived pancreatic carcinoma cell line growth inhibition [AhR]
Conditions: for IC50: curve of first compound; for viability, T/C: stronger effect = lower value
How it was run: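 Spheroids combined tumor cells with HUVEC endothelial cells and human MSCs as stroma. AhR antagonists were paired with standard or investigational drugs, each dosed in half-log steps down from near clinical Cmax, or from 10 microM where Cmax was unknown.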

[1] = second compound 0.1 µM, first compound 0.0316 µM
[2] = second compound 0.1 µM, first compound 0.1 µM
[3] = second compound 0.1 µM, first compound 0.316 µM
[4] = second compound 0.1 µM, first compound 1 µM
[5] = second compound 0.1 µM, first compound 3.16 µM
[6] = second compound 0.1 µM, first compound 10 µM
[7] = second compound 0.316 µM, first compound 0.0316 µM
[8] = second compound 0.316 µM, first compound 0.1 µM
[9] = second compound 0.316 µM, first compound 0.316 µM
[10] = second compound 0.316 µM, first compound 1 µM
[11] = second compound 0.316 µM, first compound 3.16 µM
[12] = second compound 0.316 µM, first compound 10 µM
[13] = second compound 1 µM, first compound 0.0316 µM
[14] = second compound 1 µM, first compound 0.1 µM
[15] = second compound 1 µM, first compound 0.316 µM
[16] = second compound 1 µM, first compound 1 µM
[17] = second compound 1 µM, first compound 3.16 µM
[18] = second compound 1 µM, first compound 10 µM
[19] = second compound 3.16 µM, first compound 0.0316 µM
[20] = second compound 3.16 µM, first compound 0.1 µM
[21] = second compound 3.16 µM, first compound 0.316 µM
[22] = second compound 3.16 µM, first compound 1 µM
[23] = second compound 3.16 µM, first compound 3.16 µM
[24] = second compound 3.16 µM, first compound 10 µM
[25] = second compound 10 µM, first compound 0.0316 µM
[26] = second compound 10 µM, first compound 0.1 µM
[27] = second compound 10 µM, first compound 0.316 µM
[28] = second compound 10 µM, first compound 1 µM
[29] = second compound 10 µM, first compound 3.16 µM
[30] = second compound 10 µM, first compound 10 µM
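For viability, T/C in this document: spheroids mix tumor cells with HUVEC endothelium and human MSC stroma; luminescence taken as viability surrogate after a week of drug exposure.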

**Q.** Which IC50 (second compound 0.1 µM) does the source give for `O=C(c1cc(Cc2n[nH]c(=O)c3ccccc23)ccc1F)N1CCN(C(=O)C2CC2)CC1` + CC(CO)NC(=O)c1cc(-c2ccc(Cl)cc2)nn(-c2cnn(C)c2)c1=O here?
**A.** > 10 µM

**Q.** What about the IC50 (second compound 0.316 µM) of the same molecule?
**A.** > 10 µM

**Q.** What about the IC50 (second compound 1 µM) of the same molecule?
**A.** > 10 µM

**Q.** What about the IC50 (second compound 3.16 µM) of the same molecule?
**A.** > 10 µM

**Q.** And the IC50 (second compound 10 µM)?
**A.** > 10 µM

**Q.** What about the viability, T/C [1] of the same molecule?
**A.** 116%

**Q.** And the viability, T/C [2]?
**A.** 107%

**Q.** What about the viability, T/C [3] of the same molecule?
**A.** 116%

**Q.** And the viability, T/C [4]?
**A.** 85.6%

**Q.** And the viability, T/C [5]?
**A.** 76.7%

**Q.** And the viability, T/C [6]?
**A.** 75.3%

**Q.** What about the viability, T/C [7] of the same molecule?
**A.** 102%

**Q.** What about the viability, T/C [8] of the same molecule?
**A.** 119%

**Q.** And the viability, T/C [9]?
**A.** 93.7%

**Q.** What about the viability, T/C [10] of the same molecule?
**A.** 101%

**Q.** And the viability, T/C [11]?
**A.** 73.2%

**Q.** And the viability, T/C [12]?
**A.** 71.3%

**Q.** And the viability, T/C [13]?
**A.** 101%

**Q.** And the viability, T/C [14]?
**A.** 104%

**Q.** What about the viability, T/C [15] of the same molecule?
**A.** 110%

**Q.** And the viability, T/C [16]?
**A.** 88.7%

**Q.** And the viability, T/C [17]?
**A.** 83.7%

**Q.** And the viability, T/C [18]?
**A.** 72.6%

**Q.** And the viability, T/C [19]?
**A.** 91.9%

**Q.** And the viability, T/C [20]?
**A.** 128%

**Q.** And the viability, T/C [21]?
**A.** 110%

**Q.** And the viability, T/C [22]?
**A.** 97.7%

**Q.** And the viability, T/C [23]?
**A.** 85.4%

**Q.** What about the viability, T/C [24] of the same molecule?
**A.** 70.5%

**Q.** What about the viability, T/C [25] of the same molecule?
**A.** 68.5%

**Q.** And the viability, T/C [26]?
**A.** 82.6%

**Q.** What about the viability, T/C [27] of the same molecule?
**A.** 87.4%

**Q.** What about the viability, T/C [28] of the same molecule?
**A.** 79.9%

**Q.** What about the viability, T/C [29] of the same molecule?
**A.** 70.6%

**Q.** What about the viability, T/C [30] of the same molecule?
**A.** 50.5%

**Q.** For `CC1COCCN1c1cc(C2(S(C)(=N)=O)CC2)nc(-c2ccnc3[nH]ccc23)n1` (stereo not given) + Cc1cncc(-c2nc(NCCc3c[nH]c4ccccc34)c3ncn(C(C)C)c3n2)c1, which IC50 (second compound 0.1 µM) is on record?
**A.** 2.45 µM

**Q.** And the IC50 (second compound 0.316 µM)?
**A.** 2.57 µM

**Q.** And the IC50 (second compound 1 µM)?
**A.** 2.59 µM

**Q.** What about the IC50 (second compound 3.16 µM) of the same molecule?
**A.** 2.64 µM

**Q.** What about the IC50 (second compound 10 µM) of the same molecule?
**A.** 2.47 µM

**Q.** And the viability, T/C [1]?
**A.** 115%

**Q.** And the viability, T/C [2]?
**A.** 108%

**Q.** And the viability, T/C [3]?
**A.** 114%

**Q.** What about the viability, T/C [4] of the same molecule?
**A.** 107%

**Q.** And the viability, T/C [5]?
**A.** 33.8%

**Q.** And the viability, T/C [6]?
**A.** 15.5%

**Q.** And the viability, T/C [7]?
**A.** 125%

**Q.** And the viability, T/C [8]?
**A.** 131%

**Q.** And the viability, T/C [9]?
**A.** 105%

**Q.** And the viability, T/C [10]?
**A.** 118%

**Q.** What about the viability, T/C [11] of the same molecule?
**A.** 35.1%

**Q.** And the viability, T/C [12]?
**A.** 14.4%

**Q.** And the viability, T/C [13]?
**A.** 140%

**Q.** And the viability, T/C [14]?
**A.** 138%

**Q.** And the viability, T/C [15]?
**A.** 131%

**Q.** What about the viability, T/C [16] of the same molecule?
**A.** 128%

**Q.** What about the viability, T/C [17] of the same molecule?
**A.** 33.5%

**Q.** And the viability, T/C [18]?
**A.** 15.5%

**Q.** What about the viability, T/C [19] of the same molecule?
**A.** 139%

**Q.** What about the viability, T/C [20] of the same molecule?
**A.** 142%

**Q.** What about the viability, T/C [21] of the same molecule?
**A.** 154%

**Q.** And the viability, T/C [22]?
**A.** 128%

**Q.** And the viability, T/C [23]?
**A.** 35.7%

**Q.** What about the viability, T/C [24] of the same molecule?
**A.** 14.5%

**Q.** What about the viability, T/C [25] of the same molecule?
**A.** 130%

**Q.** What about the viability, T/C [26] of the same molecule?
**A.** 132%

**Q.** And the viability, T/C [27]?
**A.** 139%

**Q.** And the viability, T/C [28]?
**A.** 111%

**Q.** And the viability, T/C [29]?
**A.** 33.9%

**Q.** And the viability, T/C [30]?
**A.** 14.3%

**Q.** Which results are given for `Nc1ncn(C2CC(O)C(CO)O2)c(=O)n1` (stereo not given) + Cc1ccccc1N=Nc1ccc(NC(=O)c2ccnn2C)c(C)c1?
**A.** IC50 (second compound 0.1 µM): > 1 µM; IC50 (second compound 0.316 µM): 0.811 µM; IC50 (second compound 1 µM): > 1 µM; IC50 (second compound 3.16 µM): > 1 µM; IC50 (second compound 10 µM): > 1 µM; viability, T/C (second compound 0.1 µM, first compound 0.00316 µM): 79%; viability, T/C (second compound 0.1 µM, first compound 0.01 µM): 86.1%; viability, T/C [1]: 92.4%; viability, T/C [2]: 62.6%; viability, T/C [3]: 55.5%; viability, T/C [4]: 50.7%; viability, T/C (second compound 0.316 µM, first compound 0.00316 µM): 88.5%; viability, T/C (second compound 0.316 µM, first compound 0.01 µM): 104%; viability, T/C [7]: 86.6%; viability, T/C [8]: 83.8%; viability, T/C [9]: 61.9%; viability, T/C [10]: 47.4%; viability, T/C (second compound 1 µM, first compound 0.00316 µM): 90.5%; viability, T/C (second compound 1 µM, first compound 0.01 µM): 126%; viability, T/C [13]: 96.6%; viability, T/C [14]: 90.2%; viability, T/C [15]: 94.2%; viability, T/C [16]: 65.4%; viability, T/C (second compound 3.16 µM, first compound 0.00316 µM): 106%; viability, T/C (second compound 3.16 µM, first compound 0.01 µM): 120%; viability, T/C [19]: 110%; viability, T/C [20]: 88.3%; viability, T/C [21]: 104%; viability, T/C [22]: 67.1%; viability, T/C (second compound 10 µM, first compound 0.00316 µM): 138%; viability, T/C (second compound 10 µM, first compound 0.01 µM): 147%; viability, T/C [25]: 140%; viability, T/C [26]: 127%; viability, T/C [27]: 95.2%; viability, T/C [28]: 88%
